# Reference: patent US20060166995A1, “Piperidine-n-oxide-derivatives” (ALTANA PHARMA AG, priority 2002, published 2006)
# Key:
# PDE4 = experiment: Inhibition of PDE4 activity (cytosol from human neutrophils, [3H]cAMP hydrolysis); format: biochemical; conditions: 0.5 μM cAMP, Motapizone (1 μM) included to suppress PDE3 activity
# Protocol: Method for Measuring Inhibition of PDE4 Activity
# PDE4 activity was determined as described by Thompson et al. (Adv Cycl Nucl Res 10: 69-92, 1979) with some modifications (Bauer and Schwabe, Naunyn-Schmiedeberg's Arch Pharmacol 311: 193-198, 1980). At a final assay volume of 200 μl (96 well microtiter plates) the assay mixture contained 20 mM Tris (pH 7.4), 5 mM MgCl2, 0.5 μM cAMP, [^3H]cAMP (about 30,000 cpm/assay), the test compound and an aliquot of cytosol from human neutrophils which mainly contains PDE4 activity as described by Schudt et al. (Naunyn-Schmiedeberg's Arch Pharmacol 344: 682-690, 1991); the PDE3-specific inhibitor Motapizone (1 μM) was included to suppress PDE3 activity originating from contaminating platelets. Serial dilutions of the compounds were prepared in DMSO and further diluted 1:100 (v/v) in the assays to obtain the desired final concentrations of the inhibitors at a DMSO concentration of 1 % (v/v) which by itself only slightly affected PDE4 activity.
# After preincubation for 5 min at 37° C., the reaction was started by the addition of substrate (cAMP) and the assays were incubated for further 15 min at 37° C. 50 μl of 0.2 N HCl was added to stop the reaction and the assays were left on ice for about 10 min. Following incubation with 25 μg 5′-nucleotidase (Crotalus atrox snake venom) for 10 min at 37° C., the assays were loaded on QAE Sephadex A-25 (1 ml bed volume). The columns were eluted with 2 ml of 30 mM ammonium formiate (pH 6.0) and the eluate was counted for radioactivity. Results were corrected for blank values (measured in the presence of denatured protein) which were below 5% of total radioactivity. […] The IC50-values for the compounds according to the invention for the inhibition of the PDE4 activity were determined from the concentration-inhibition curves by nonlinear-regression.
# The inhibitory values determined for the compounds according to the invention follow from the following table A, which the numbers of the compounds correspond to the numbers of the examples.
melting point [°C],Compound,Inhibition of PDE4 acitivity [measured as −logIC50 (mol/l)] (PDE4)
159 to 161,"COc1ccc(C2=NN(C3CC[N+]([O-])(CC(N)=O)CC3)C(=O)C3CC=CCC23)cc1OC [compound 1, 2-{4-[(4aS,8aR)-4-(3,4-Dimethoxy-phenyl)-1-oxo-4a,5,8,8a-tetrahydro-1H-phthalazin-2-yl]-1-oxy-piperidin-1-yl}-acetamide]",8.31
130 to 132,"COc1ccc(C2=NN(C3CC[N+]([O-])(CC(=O)NC(C)C)CC3)C(=O)C3CC=CCC23)cc1OC [compound 2, 2-{4-[(4aS,8aR)-4-(3,4-Dimethoxy-phenyl)-1-oxo-4a,5,8,8a-tetrahydro-1H-phthalazin-2yl]-1-oxy-piperidin-1-yl}-N-isopropyl-acetamide]",9.3
176 to 177,COc1ccc(C2=NN(C3CC[N+]([O-])(CC(N)=O)CC3)C(=O)C3CCCCC23)cc1OC (stereo not drawn) [compound 3],7.5
